Common to all, as to format: cell-based
Series [1] concerns primary human adipose stem cells (hASCs). Put plainly: Cell count assay in control cells (human ASCs). From the text:
FIG. 4A and FIG. 4B depict histogram results of cell count assays after two days of exposure to each analog in cancer cell lines (SW1990 and PANC-1) and in control cells (human ASCs). […] In all cases, IC50 values were greater than 300 which is the highest concentration tested, for the ACSs, while the Ac4Glc2Bz analogs and Ac4Gal2Bz analogs were effective to reduce cell numbers in both cancer cell lines.

Series [2] has as its system UDP-Glc/GalNAc (HexNAc), product of UAP1/2. Description: Targeted metabolomics, LC-MS/MS of UDP-HexNAc in 612 cells. As to the method:
FIGS. 16A-16B show exemplary targeted metabolomics results from primary glioblastoma cells. […] (n=3, with error bars representing SEM;* indicates p<0.05)
In FIGS. 16A-16B, representative targeted metabolomics results from primary glioblastoma cells were quantitated using LC-MS/MS traces. For example, the 612 cells were treated with 50 μM or 100 μM of Ac4Glc2Bz or non-treated (control). Afterwards, the cell extracts were obtained using Bligh-Dyer extraction and the extracts were analyzed using LC-MS/MS. Twelve 150-mm tissue culture plates were coated with lamin (1 ug/cm^2) in PBS for 24 h. 5×10^6 612 cells were seed onto each plate in 20 mL of media for condition tested: DMSO vehicle control (2 plates) (matched to the volume of vehicle used for the 100 μM condition), 50 μM (4 plates), 100 μM (6 plates). Ater 48 h, the plates were cooled for 10 minutes on ice followed by aspiration of the media. The plates were then tilted at 30° for 30 seconds and any remaining media was removed. Plates were washed twice with 10 mL of ice cold PBS (calcium and magnesium ion free). Next, the plates were covered and chilled with dry ice for 10 minutes to completely freeze all of the cells. While freezing the cells, a solution of methanol:H2O (2:0.8) was made and chilled in an isopropyl alcohol-dry ice bath. The plates were transferred to wet ice and 500 μL of the MeOH:H2O solution was added to the plates. Cells were scraped and the were transferred to a 15 mL tube. 500 μL more of the methanol:H2O solution was added again, and any remaining cells were scraped off the plates and were transferred to the 15 mL tubes. Samples, while remaining cold, were sonicated 2-5 times for 1 s and 1 part of chloroform was added to produce a ration of 1:2:0.8 (CHCl3:MeOH:H2O). Samples were briefly vortexed while still cold and 1 part of H2O was added followed by vortexing. […] DNA quantity from the interphase disc was determined using a fluorescent assay (SIGMA). […] The aqeuous layers were combined after normazling reconstitutions to the quantities of DNA obtained for each condition tested. […]

The subject of the next series is SW1990 cells. Description: Cell count / cell proliferation assay in SW1990 cells. To be noted: for IC50: Homo sapiens. As to the method: FIG. 3 depicts the result of cell count assays after two days of incubation with an exemplary compound, Ac4Glc2Bz. The cells treated with the compound are, respectively, SW1990 and PANC-1, which are pancreatic cancer cell lines. Meanwhile, control samples were treated with solvent vehicle of 2.5 μL DMSO per 1 mL of medium.
(§1) FIGS. 5A and 5B show the results of cell toxicity experiments that were conducted on SW1990 and PANC-1 cells with the analogs indicated. Cells were counted after incubation with each analog for 48 hours. Cell counts were then normalized to controls, data was log transformed, and IC50 values were calculated. […]
(§2) Cells were incubated at a range of concentrations of the UAP inhibitors (typically at 0, 10, 25, 50, 100, and 150 μM) and the number of cells were quantified, typically by automated counting (e.g., with a Coulter Counter Z2 instrument) after 1, 2, 3, or 5 days of exposure.

A further series concerns global DNA methylation. Description: Global DNA methylation assay in SW1990 cells. The method, then: In 6-well plates, SW1990 cells were seeded (3×10^5) and were treated with Ac4Glc2Bz at the indicated concentrations. DNA from treated cells was isolated using a FitAmp Blood and Cultured Cell DNA Extraction Kit (Epigentek) followed by colormetric determination of global methylation using a MethylFlash™ Methylated DNA Quantification Kit (Epigentek). […] For instance, by reducing flux through the HBP, UAP inhibitors could exert epigenetic effects, as global DNA methylation was increased as shown in FIG. 23. Although hypermethylation of promoter sites of tumor suppressors might be common in cancer at a global scale, cancer cells are almost always characterized by hypomethylation, which the current UAP inhibitors appeared to be reversing (Epigenomics. 2009 December; 1(2): 239-259; Oncogene. 12 Aug. 2002, Volume 21, Number 35, Pages 5400-5413).

For a further series, the system named is PANC-1 cells. Put plainly: Cell count / cell proliferation assay in PANC-1 cells. Particulars: Homo sapiens. As to the method: as §1, §2

Where two headings read alike, the source gives them in different places. A value given as a limit tells only on which side of the number the result lay.

Take `CC(=O)OCC1OC(OC(C)=O)[C@@H](NC(=O)c2ccccc2)[C@@H](OC(C)=O)[C@@H]1OC(C)=O` (stereo partly drawn) [Ac4Glc2Bz]: the IC50 in series [1] (Homo sapiens, 48 h, two days of exposure, 300 is the highest concentration tested) is > 300 µM; with SW1990 cells (SW1990, 48 h, cell count after two days of incubation, FIG. 3, read-out: IC50 of reduction of cell numbers, SW1990), ~50 µM; in the series with SW1990 cells (SW1990, cells counted after 48 hours incubation, normalized to controls, read-out: Estimated IC50 values, SW1990), 25.8 ± 1.5 µM; in the series on PANC-1 cells (PANC-1, 48 h, cell count after two days of incubation, FIG. 3, read-out: IC50 of reduction of cell numbers, PANC-1), ~50 µM; in the series with PANC-1 cells (PANC-1, FIG. 5B, read-out: IC50 of PANC-1 cell proliferation), ~45 µM; with PANC-1 cells (PANC-1, cells counted after 48 hours incubation, normalized to controls, read-out: Estimated IC50 values, PANC-1), 45.5 ± 1.2 µM. The “cytotoxicity / inhibition of normal ASCs” value in series [1] (normal cells) was “minimally inhibits”. In addition, the “LC-MS/MS peaks for UDP-HexNAc in treated cell extracts” value in series [2] (612 cells, 50 μM or 100 μM, 48 h) is reported as “substantially lower”. The “reduction of quantitized amount of UDP-HexNAc, particularly UDP-GlcNAc, vs non-treated cell” value in series [2] (612 cells, 50 μM, 48 h) is ~4 fold. In series [2] (printed as shown in FIGS. 18A-18B), the “residual level of UDP-GlcNAc” value is “about 25%”. Moreover, in the series on SW1990 cells (in words), the “effect on SW1990 cell numbers / proliferation” value was “lowest IC50 value”. Moreover, the “global DNA methylation” value with global DNA methylation is on record as “promote global DNA methylation at higher doses”.

The values are drawn from patent US11827663B2, “Use of UAP inhibitors to inhibit flux through the hexosamine biosynthetic pathway” (The Johns Hopkins University, priority 2014, dated 2023).
